What all share (test): Kinase panel profiling at 1 µmol/L (MSA or IMAP), percentage inhibition
Type in all cases: biochemical

Assay [1] deals with T1, panel of 255 wild-type kinases (Homo sapiens, UniProt Q96BR1).
T1 sequence (Q96BR1 1-496): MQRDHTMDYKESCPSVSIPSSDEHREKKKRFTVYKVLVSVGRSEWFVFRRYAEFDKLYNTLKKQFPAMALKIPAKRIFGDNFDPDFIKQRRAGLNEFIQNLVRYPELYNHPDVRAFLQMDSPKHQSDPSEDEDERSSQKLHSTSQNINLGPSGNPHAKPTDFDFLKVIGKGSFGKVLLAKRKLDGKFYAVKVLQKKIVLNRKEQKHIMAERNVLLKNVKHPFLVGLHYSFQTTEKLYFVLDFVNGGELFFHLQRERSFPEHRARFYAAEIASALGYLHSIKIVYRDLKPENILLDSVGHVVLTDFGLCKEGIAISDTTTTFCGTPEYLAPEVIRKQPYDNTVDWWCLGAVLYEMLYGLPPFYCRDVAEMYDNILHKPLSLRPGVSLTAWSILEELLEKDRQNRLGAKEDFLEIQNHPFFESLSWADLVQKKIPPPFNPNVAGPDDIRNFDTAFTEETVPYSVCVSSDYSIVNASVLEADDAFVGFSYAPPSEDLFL
The following applies: read-out: %-inhibition at 1 µmol/L, SGK3.

The target of assay [2] is panel of 255 wild-type kinases (Homo sapiens, UniProt P07332). The following applies: read-out: %-inhibition at 1 µmol/L, FES.
In assay [3] the target is T2, panel of 255 wild-type kinases (Homo sapiens, UniProt Q02156).
T2 sequence (Q02156 1-737): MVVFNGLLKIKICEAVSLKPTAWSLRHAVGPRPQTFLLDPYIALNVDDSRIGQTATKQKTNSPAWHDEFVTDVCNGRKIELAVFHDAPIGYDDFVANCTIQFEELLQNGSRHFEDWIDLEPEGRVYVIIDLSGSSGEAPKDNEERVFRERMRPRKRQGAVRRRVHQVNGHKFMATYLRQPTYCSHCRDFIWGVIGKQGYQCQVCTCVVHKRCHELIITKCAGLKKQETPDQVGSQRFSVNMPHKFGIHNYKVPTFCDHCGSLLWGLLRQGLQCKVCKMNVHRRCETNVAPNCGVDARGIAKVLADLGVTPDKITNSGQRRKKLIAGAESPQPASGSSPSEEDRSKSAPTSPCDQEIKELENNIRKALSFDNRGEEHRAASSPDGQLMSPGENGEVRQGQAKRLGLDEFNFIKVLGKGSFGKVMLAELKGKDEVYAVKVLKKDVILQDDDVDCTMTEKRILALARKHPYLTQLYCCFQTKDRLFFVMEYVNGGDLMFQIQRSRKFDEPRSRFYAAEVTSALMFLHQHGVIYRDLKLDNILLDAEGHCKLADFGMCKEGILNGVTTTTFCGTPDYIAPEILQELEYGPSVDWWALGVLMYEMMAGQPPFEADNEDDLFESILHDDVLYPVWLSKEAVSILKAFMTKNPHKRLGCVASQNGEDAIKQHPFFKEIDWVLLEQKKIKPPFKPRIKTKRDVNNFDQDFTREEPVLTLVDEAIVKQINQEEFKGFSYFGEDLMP
The following applies: read-out: %-inhibition at 1 µmol/L, PKCε.

Assay [4] addresses T3, panel of 255 wild-type kinases (Homo sapiens, UniProt Q8TD19).
T3 sequence (Q8TD19 1-979): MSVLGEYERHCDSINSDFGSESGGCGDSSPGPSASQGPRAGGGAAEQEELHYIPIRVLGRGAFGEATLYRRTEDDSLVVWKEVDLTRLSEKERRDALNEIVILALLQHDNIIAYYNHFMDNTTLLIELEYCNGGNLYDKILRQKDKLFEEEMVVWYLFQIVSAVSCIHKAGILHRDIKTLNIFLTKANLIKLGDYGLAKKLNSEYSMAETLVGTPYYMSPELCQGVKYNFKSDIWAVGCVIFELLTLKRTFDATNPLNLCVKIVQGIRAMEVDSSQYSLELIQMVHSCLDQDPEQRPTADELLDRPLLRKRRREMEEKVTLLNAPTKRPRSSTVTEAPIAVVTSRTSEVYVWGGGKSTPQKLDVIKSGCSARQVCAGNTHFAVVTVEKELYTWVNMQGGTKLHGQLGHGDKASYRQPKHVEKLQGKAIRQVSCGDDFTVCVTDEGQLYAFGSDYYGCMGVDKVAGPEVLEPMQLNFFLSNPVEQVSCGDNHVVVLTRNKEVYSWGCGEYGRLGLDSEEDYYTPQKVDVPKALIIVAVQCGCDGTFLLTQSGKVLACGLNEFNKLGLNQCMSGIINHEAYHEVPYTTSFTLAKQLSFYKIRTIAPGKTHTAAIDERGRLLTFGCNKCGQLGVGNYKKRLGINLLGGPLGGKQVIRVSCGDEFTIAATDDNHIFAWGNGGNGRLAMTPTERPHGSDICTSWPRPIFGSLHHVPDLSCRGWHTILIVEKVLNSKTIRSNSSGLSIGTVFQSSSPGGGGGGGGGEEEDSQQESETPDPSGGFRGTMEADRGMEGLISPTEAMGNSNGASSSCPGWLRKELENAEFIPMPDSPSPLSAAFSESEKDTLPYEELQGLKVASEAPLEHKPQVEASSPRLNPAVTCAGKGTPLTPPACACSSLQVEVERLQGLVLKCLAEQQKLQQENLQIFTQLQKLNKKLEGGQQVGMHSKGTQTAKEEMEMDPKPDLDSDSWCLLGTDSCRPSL
The note with it: read-out: %-inhibition, NEK9.

Setting [5] is: kinase SGK3, 1 µmol/L single concentration.
Setting [6] is: kinase FES, 1 µmol/L single concentration.
Setting [7] is: kinase PKCε, 1 µmol/L single concentration.
The mark [8] stands for this setting: NEK9, 1 µmol/L single concentration.

Like-named read-outs stand apart in the source and are kept apart here.

Regarding `Cc1nc(NC(=O)N2CCC[C@H]2C(N)=O)sc1-c1ccnc(C(C)(C)C(F)(F)F)c1` [alpelisib], the inhibition at 1 µM was 1.47% in assay [1] (setting [5]), -3.47% in assay [2] (setting [6]), 15% in assay [3] (setting [7]) and 2.8% in assay [4] (setting [8]).

In the case of `Cn1cc(-c2cc3c(N4CCN(c5ncc([C@@](C)(N)c6ccc(F)cc6)cn5)CC4)ncnn3c2)cn1` [avapritinib], the inhibition at 1 µM in assay [1] (setting [5]) is -2%; in assay [2] (setting [6]), 1.65%; in assay [3] (setting [7]), -2.54%; in assay [4] (setting [8]) it was 30%.

On to `Cn1cnc2c(F)c(Nc3ccc(Br)cc3F)c(C(=O)NOCCO)cc21` [binimetinib], for which the inhibition at 1 µM in assay [1] (setting [5]) is -0.74%; in assay [2] (setting [6]) it was 6%; in assay [3] (setting [7]) it was 11%; in assay [4] (setting [8]) it was -6.59%.

For the molecule `CNC(=O)c1ccc(-c2cnc3ncc(Cc4ccc5ncccc5c4)n3n2)cc1F` [capmatinib], the inhibition at 1 µM in assay [1] was -2.49%; in assay [2], -2%; in assay [3], -19%; in assay [4], -1.11%.

`COc1cc2ncnc(Nc3ccc(F)c(Cl)c3)c2cc1NC(=O)/C=C/CN1CCCCC1` [dacomitinib]: the inhibition at 1 µM in assay [1] (setting [5]) is -20%; in assay [2] (setting [6]) it was 1.56%; in assay [3] (setting [7]), 8%; in assay [4] (setting [8]), -1.05%.

As to `C[C@H](Nc1ncnc2nc[nH]c12)c1cc2cccc(Cl)c2c(=O)n1-c1ccccc1` [duvelisib], the inhibition at 1 µM in assay [1] (setting [5]) is 1.26%; in assay [2] (setting [6]), -0.806%; in assay [3] (setting [7]), 13%; in assay [4] (setting [8]), 1.7%.

For `COC(=O)N[C@@H](C)CNc1nccc(-c2cn(C(C)C)nc2-c2cc(Cl)cc(NS(C)(=O)=O)c2F)n1` [encorafenib], the inhibition at 1 µM is 5% in assay [1] (setting [5]), 7% in assay [2] (setting [6]), -7% in assay [3] (setting [7]) and -4.26% in assay [4] (setting [8]).

For `CN1CCN(c2ccc(C(=O)Nc3n[nH]c4ccc(Cc5cc(F)cc(F)c5)cc34)c(NC3CCOCC3)c2)CC1` [entrectinib], the inhibition at 1 µM is 0.413% in assay [1] (setting [5]), 68% in assay [2] (setting [6]), 27% in assay [3] (setting [7]) and 17% in assay [4] (setting [8]).

With `CCc1nc(C(N)=O)c(Nc2ccc(N3CCC(N4CCN(C)CC4)CC3)c(OC)c2)nc1NC1CCOCC1` [gilteritinib], the inhibition at 1 µM in assay [1] (setting [5]) was -18%; in assay [2] (setting [6]), 76%; in assay [3] (setting [7]), 27%; in assay [4] (setting [8]), 21%.

Take `CCN1CCN(c2ccc(Nc3cc(N(C)C(=O)Nc4c(Cl)c(OC)cc(OC)c4Cl)ncn3)cc2)CC1` [infigratinib]: the inhibition at 1 µM in assay [1] (setting [5]) was -3%; in assay [2] (setting [6]) it was 20%; in assay [3] (setting [7]), 4.68%; in assay [4] (setting [8]) it was 10%.

As to `O=C(Nc1cnn2ccc(N3CCC[C@@H]3c3cc(F)ccc3F)nc12)N1CC[C@H](O)C1` [larotrectinib], the inhibition at 1 µM was -4.61% in assay [1] (setting [5]), -1.07% in assay [2] (setting [6]), 8% in assay [3] (setting [7]) and -4.43% in assay [4] (setting [8]).

As to `C[C@H]1Oc2cc(cnc2N)-c2c(nn(C)c2C#N)CN(C)C(=O)c2ccc(F)cc21` [lorlatinib], the results for the inhibition at 1 µM in assay [1] (setting [5]), in assay [3] (setting [7]) and in assay [4] (setting [8]) were 7.56%, 10% and 6%, respectively.

In the case of `CCN1C(=O)N(c2c(F)c(OC)cc(OC)c2F)Cc2cnc3[nH]c(CN4CCOCC4)cc3c21` [pemigatinib], the inhibition at 1 µM was -7% in assay [1] (setting [5]), 1.55% in assay [2] (setting [6]), 5% in assay [3] (setting [7]) and -1.57% in assay [4] (setting [8]).

In the case of `FC(F)(F)c1ccc(CNc2ccc(Cc3c[nH]c4ncc(Cl)cc34)cn2)cn1` [pexidartinib], the inhibition at 1 µM in assay [1] (setting [5]) was -0.803%; in assay [2] (setting [6]), 27%; in assay [3] (setting [7]) it was 1.26%; in assay [4] (setting [8]), 1.33%.

Take `CO[C@]1(C(=O)N[C@@H](C)c2ccc(-n3cc(F)cn3)nc2)CC[C@H](c2nc(C)cc(Nc3cc(C)[nH]n3)n2)CC1` [pralsetinib]: the inhibition at 1 µM in assay [1] (setting [5]) is -0.536%; in assay [2] (setting [6]), 8%; in assay [3] (setting [7]), 0.425%; in assay [4] (setting [8]) it was 16%.

On to `CCn1c(=O)c(-c2cc(NC(=O)Nc3ccccc3)c(F)cc2Br)cc2cnc(NC)cc21` [ripretinib], for which the inhibition at 1 µM in assay [1] (setting [5]) was -9%; in assay [2] (setting [6]), 23%; in assay [3] (setting [7]), 6%; in assay [4] (setting [8]) it was -2.78%.

Consider `COc1ccc(CN2C3CC2CN(c2ccc(-c4cc(OCC(C)(C)O)cn5ncc(C#N)c45)cn2)C3)cn1` [selpercatinib], for which the inhibition at 1 µM is -0.72% in assay [1] (setting [5]), 15% in assay [2] (setting [6]), 7% in assay [3] (setting [7]) and -0.802% in assay [4] (setting [8]).

As for `Cn1cnc2c(F)c(Nc3ccc(Br)cc3Cl)c(C(=O)NOCCO)cc21` [selumetinib], the inhibition at 1 µM in assay [1] (setting [5]) was -4%; in assay [2] (setting [6]) it was -3.3%; in assay [3] (setting [7]), 0.617%; in assay [4] (setting [8]), 0.727%.

As for `Cc1cc(Nc2ncnc3ccc(NC4=NC(C)(C)CO4)cc23)ccc1Oc1ccn2ncnc2c1` [tucatinib], the inhibition at 1 µM is -4% in assay [1] (setting [5]), 1.74% in assay [2] (setting [6]), -0.0549% in assay [3] (setting [7]) and -2% in assay [4] (setting [8]).

For `C=CC(=O)N1CCC([C@@H]2CCNc3c(C(N)=O)c(-c4ccc(Oc5ccccc5)cc4)nn32)CC1` [zanubrutinib], the inhibition at 1 µM in assay [1] (setting [5]) is -3.7%; in assay [2] (setting [6]), 1.42%; in assay [3] (setting [7]), 8%; in assay [4] (setting [8]), -2%.

(Values after paper PMC9516332 (Frontiers in Oncology, 2022).)
